Among the data in PubChem BioAssay AID1745844 (Carcinogenic Potency Database (CPDB), 2022) are carcinogen call and TD50 values, retold here.

The test system of this data set is rodent lifetime carcinogenesis bioassay, tumor incidence TD50. Briefly: chronic cancer bioassays in animals – CPDB, compiled studies (AID 1745844).
[1] abbreviates: mouse, strain B6AKF1, females, oral dosing, site: any site (literature study), lesion: several types, types named in the paper, dosed 76 weeks, study length 76 weeks.
Setting [2] is: mouse, strain B6AKF1, females, oral dosing, site: liver, lesion: hepatoma, dosed 76 weeks, study length 76 weeks.
Setting [3] is: mouse, strain B6AKF1, females, oral dosing, site: lung, lesion: adenoma, dosed 76 weeks, study length 76 weeks.
Setting [4] is: mouse, strain B6AKF1, males, oral dosing, site: any site (literature study), lesion: several types, types named in the paper, dosed 76 weeks, study length 76 weeks.
Setting [5] is: mouse, strain B6AKF1, males, oral dosing, site: liver, lesion: hepatoma, dosed 76 weeks, study length 76 weeks.
Setting [6] is: mouse, strain B6AKF1, males, oral dosing, site: lung, lesion: adenoma, dosed 76 weeks, study length 76 weeks.
Setting [7] is: mouse, strain B6C3F1, females, oral dosing, site: any site (literature study), lesion: several types, types named in the paper, dosed 76 weeks, study length 76 weeks.
Where [8] appears, read: mouse, strain B6C3F1, females, oral dosing, site: liver, lesion: hepatoma, dosed 76 weeks, study length 76 weeks.
Where [9] appears, read: mouse, strain B6C3F1, females, oral dosing, site: lung, lesion: several types, types named in the paper, dosed 76 weeks, study length 76 weeks.
Setting [10] is: mouse, strain B6C3F1, males, oral dosing, site: any site (literature study), lesion: several types, types named in the paper, dosed 76 weeks, study length 76 weeks.
Where [11] appears, read: mouse, strain B6C3F1, males, oral dosing, site: liver, lesion: hepatoma, dosed 76 weeks, study length 76 weeks.
[12] abbreviates: mouse, strain B6C3F1, males, oral dosing, site: lung, lesion: adenoma, dosed 76 weeks, study length 76 weeks.
Setting [13] is: rat, strain Fischer 344, males, in feed, site: any site (literature study), lesion: several types, types named in the paper, dosed 78 weeks, study length 104 weeks.

SMILES strings stand for the structures. Activity calls are given as the source filed them. No rule for the calls is given here.

For `CC(Oc1cc(Cl)c(Cl)cc1Cl)C(=O)O` (stereo unspecified), the carcinogen call is “negative (inactive)” under setting [1]; “negative (inactive)” under setting [2]; “negative (inactive)” under setting [3]; “negative (inactive)” under setting [4]; “negative (inactive)” under setting [5]; “negative (inactive)” under setting [6]. The carcinogen call reads like this: under setting [8], “negative (inactive)”; under setting [9], “negative (inactive)”. Also, the TD50 (as a rule, the 50% point of the dose-response relation for the toxic effect studied) reads like this: under setting [7], 52.6 mg/kg/day (inactive); under setting [10], 9.07 mg/kg/day (inactive); under setting [11], 16.6 mg/kg/day (inactive); under setting [12], 95.2 mg/kg/day (inactive).

With `Cn1cc(C(=O)O)c(=O)c2ccc(/C=C/c3ccc([N+](=O)[O-])o3)nc21`, the TD50 (mouse, strain ICR/Jcl, both sexes, in feed, site: forestomach, lesion: squamous-cell carcinoma, dosed 54 weeks, study length 54 weeks) was 10.3 mg/kg/day; the TD50 (mouse, strain ICR/Jcl, both sexes, in feed, site: lung, lesion: adenoma, dosed 54 weeks, study length 54 weeks) was 8.03 mg/kg/day; the TD50 (mouse, strain ICR/Jcl, both sexes, in feed, site: lung, lesion: carcinoma, dosed 54 weeks, study length 54 weeks) was 21.9 mg/kg/day; the TD50 (mouse, strain ICR/Jcl, both sexes, in feed, site: thymus gland, lesion: lymphatic leukemia, dosed 54 weeks, study length 54 weeks) is 26.5 mg/kg/day.

Take `Cc1ccc2c(c1N)C(=O)c1ccccc1C2=O`: the TD50 reads like this: (mouse, strain B6C3F1, females, in feed, site: liver, lesion: hepatocellular adenoma + hepatocellular carcinoma + neoplastic nodule, dosed 70 weeks, study length 97 weeks) 174 mg/kg/day; (mouse, strain B6C3F1, females, in feed, site: liver, lesion: hepatocellular carcinoma + neoplastic nodule, dosed 70 weeks, study length 97 weeks) 174 mg/kg/day; (rat, strain Fischer 344, females, in feed, site: liver, lesion: hepatocellular adenoma + hepatocellular carcinoma + neoplastic nodule, dosed 78 weeks, study length 104 weeks) 115 mg/kg/day; (rat, strain Fischer 344, females, in feed, site: liver, lesion: hepatocellular carcinoma + neoplastic nodule, dosed 78 weeks, study length 104 weeks) 115 mg/kg/day; (rat, strain Fischer 344, females, in feed, site: liver, lesion: hepatocellular carcinoma, dosed 78 weeks, study length 104 weeks) 182 mg/kg/day; under setting [13], 64.4 mg/kg/day. Further, the TD50 is 34.1 mg/kg/day (rat, strain Fischer 344, males, in feed, site: kidney + liver, lesion: adenocarcinoma, NOS + tubular-cell adenoma + tubular-cell adenocarcinoma + hepatocellular carcinoma + neoplastic nodule, dosed 78 weeks, study length 104 weeks); 441 mg/kg/day (rat, strain Fischer 344, males, in feed, site: kidney, lesion: adenocarcinoma, NOS + tubular-cell adenocarcinoma, dosed 78 weeks, study length 104 weeks); 131 mg/kg/day (rat, strain Fischer 344, males, in feed, site: kidney, lesion: adenocarcinoma, NOS + tubular-cell adenoma + tubular-cell adenocarcinoma, dosed 78 weeks, study length 104 weeks); 196 mg/kg/day (rat, strain Fischer 344, males, in feed, site: kidney, lesion: tubular-cell adenoma, dosed 78 weeks, study length 104 weeks); 39.9 mg/kg/day (rat, strain Fischer 344, males, in feed, site: liver, lesion: hepatocellular adenoma + hepatocellular carcinoma + neoplastic nodule, dosed 78 weeks, study length 104 weeks); 39.9 mg/kg/day (rat, strain Fischer 344, males, in feed, site: liver, lesion: hepatocellular carcinoma + neoplastic nodule, dosed 78 weeks, study length 104 weeks). Also, the TD50 (rat, strain Fischer 344, males, in feed, site: liver, lesion: hepatocellular carcinoma, dosed 78 weeks, study length 104 weeks) is 150 mg/kg/day; the TD50 (rat, strain Fischer 344, males, in feed, site: pituitary gland, lesion: adenoma, NOS + chromophobe adenoma, dosed 78 weeks, study length 104 weeks) is 136 mg/kg/day; the TD50 (rat, strain Fischer 344, males, in feed, site: thyroid gland, lesion: c-cell adenoma + c-cell carcinoma, dosed 78 weeks, study length 104 weeks) amounted to 283 mg/kg/day. Further, the carcinogen call (mouse, strain B6C3F1, males, in feed, site: any site (literature study), lesion: several types, types named in the paper, dosed 70 weeks, study length 97 weeks) is “negative (inactive)”.

For the molecule `O=C1C2CC=CCC2C(=O)N1SC(Cl)(Cl)Cl` (stereo unspecified), the carcinogen call is “negative (inactive)” under setting [1]; “negative (inactive)” under setting [2]; “negative (inactive)” under setting [3]; “negative (inactive)” (mouse, strain B6C3F1, females, in feed, site: any site (literature study), lesion: several types, types named in the paper, dosed 80 weeks, study length 91 weeks); “negative (inactive)” under setting [8]; “negative (inactive)” under setting [9]. Further, the carcinogen call reads like this: (mouse, strain B6C3F1, males, in feed, site: any site (literature study), lesion: several types, types named in the paper, dosed 80 weeks, study length 91 weeks) “negative (inactive)”; (rat, strain Osborne-Mendel, females, in feed, site: any site (literature study), lesion: several types, types named in the paper, dosed 80 weeks, study length 113 weeks) “negative (inactive)”. Further, the TD50 under setting [4] is 161 mg/kg/day (inactive); the TD50 under setting [5] is 195 mg/kg/day (inactive); the TD50 under setting [6] is 3620 mg/kg/day (inactive); the TD50 (mouse, strain B6C3F1, females, in feed, site: duodenum, lesion: adenocarcinoma in adenomatous polyp, dosed 80 weeks, study length 90 weeks) is 21600 mg/kg/day; the TD50 under setting [7] is 244 mg/kg/day (inactive); the TD50 (mouse, strain B6C3F1, males, in feed, site: duodenum, lesion: adenocarcinoma in adenomatous polyp, dosed 80 weeks, study length 90 weeks) is 15100 mg/kg/day. The TD50 reads like this: (mouse, strain B6C3F1, males, in feed, site: duodenum, lesion: adenomatous polyp, NOS or adenocarcinoma in adenomatous polyp, dosed 80 weeks, study length 90 weeks) 7390 mg/kg/day; under setting [10], 42.5 mg/kg/day (inactive); under setting [11], 86.1 mg/kg/day (inactive); under setting [12], 187 mg/kg/day (inactive); (mouse, strain Charles River CD1, females, in feed, site: small intestine, lesion: adenoma, dosed 113 weeks, study length 113 weeks) 13300 mg/kg/day; (mouse, strain Charles River CD1, females, in feed, site: small intestine, lesion: carcinoma, dosed 113 weeks, study length 113 weeks) 2110 mg/kg/day. The TD50 runs as follows: (mouse, strain Charles River CD1, females, in feed, site: small intestine, lesion: several types, types named in the paper, dosed 113 weeks, study length 113 weeks) 1740 mg/kg/day; (mouse, strain Charles River CD1, males, in feed, site: small intestine, lesion: adenoma, dosed 113 weeks, study length 113 weeks) 8280 mg/kg/day; (mouse, strain Charles River CD1, males, in feed, site: small intestine, lesion: carcinoma, dosed 113 weeks, study length 113 weeks) 3500 mg/kg/day; (mouse, strain Charles River CD1, males, in feed, site: small intestine, lesion: several types, types named in the paper, dosed 113 weeks, study length 113 weeks) 2690 mg/kg/day; (rat, strain Charles River CD (Sprague-Dawley), females, in feed, site: kidney, lesion: several types, types named in the paper, dosed 104 weeks, study length 104 weeks) 17900 mg/kg/day; (rat, strain Charles River CD (Sprague-Dawley), females, in feed, site: kidney, lesion: tubule carcinoma, dosed 104 weeks, study length 104 weeks) 17900 mg/kg/day. For the same molecule, the TD50 runs as follows: (rat, strain Charles River CD (Sprague-Dawley), males, in feed, site: kidney, lesion: several types, types named in the paper, dosed 104 weeks, study length 104 weeks) 2690 mg/kg/day; (rat, strain Charles River CD (Sprague-Dawley), males, in feed, site: kidney, lesion: tubule adenoma, dosed 104 weeks, study length 104 weeks) 3810 mg/kg/day; (rat, strain Charles River CD (Sprague-Dawley), males, in feed, site: kidney, lesion: tubule carcinoma, dosed 104 weeks, study length 104 weeks) 11500 mg/kg/day; (rat, strain Osborne-Mendel, females, in feed, site: adrenal gland, lesion: cortical adenoma + cortical carcinoma, dosed 80 weeks, study length 109 weeks) 253 mg/kg/day (inactive); (rat, strain Osborne-Mendel, males, in feed, site: any site (literature study), lesion: several types, types named in the paper, dosed 80 weeks, study length 113 weeks) 4780 mg/kg/day (inactive); (rat, strain Wistar, females, in feed, site: uterus, lesion: sarcoma, dosed 130 weeks, study length 130 weeks) 1700 mg/kg/day.

In the case of `CCc1nc(N)nc(N)c1-c1ccc(Cl)cc1`, the TD50 (mouse, strain B6C3F1, females, in feed, site: any site (literature study), lesion: several types, types named in the paper, dosed 78 weeks, study length 104 weeks) is 315 mg/kg/day (inactive); the TD50 (mouse, strain B6C3F1, females, in feed, site: lung, lesion: alveolar/bronchiolar adenoma + alveolar/bronchiolar carcinoma, dosed 78 weeks, study length 104 weeks) stood at 405 mg/kg/day; the TD50 (mouse, strain B6C3F1, males, in feed, site: any site (literature study), lesion: several types, types named in the paper, dosed 78 weeks, study length 104 weeks) stood at 419 mg/kg/day; the TD50 (rat, strain Fischer 344, females, in feed, site: any site (literature study), lesion: several types, types named in the paper, dosed 78 weeks, study length 104 weeks) is 27.8 mg/kg/day (inactive). For the same molecule, the carcinogen call under setting [13] was “negative (inactive)”.

As to `Cc1ncc([N+](=O)[O-])n1C`, the TD50 is 17 mg/kg/day (rat, strain Sprague-Dawley, females, in feed, site: any site (literature study), lesion: several types, types named in the paper, dosed 46 weeks, study length 66 weeks) and 17 mg/kg/day (rat, strain Sprague-Dawley, females, in feed, site: mammary gland, lesion: fibroadenoma, dosed 46 weeks, study length 66 weeks).
